Measurements as given in ChEMBL document CHEMBL1157662, “Antimalarial and antileishmanial activities of histone deacetylase inhibitors with triazole-linked cap group” (Bioorg Med Chem, 2010).
In brackets after ≈: the same amount, converted by molar mass. Activity calls are given as the source filed them. The calls are words filed in the database; no cut-off is given here.

Key:
Plasmodium falciparum [1] = test: microbe, parasite or virus in culture; assay type: functional, organism-based, W2, Vero; settings: Plasmodium falciparum, W2, Vero, 72 h; read-out: IC50
Description: Antimalarial activity against chloroquine-resistant Plasmodium falciparum W2 infected in African green monkey (Cercopithecus aethiops) Vero cells assessed as parasite LDH activity after 72 hrs by Malstat reagent method

Plasmodium falciparum [2] = test: microbe, parasite or virus in culture; settings: D6, Vero, 72 h
Description: Antimalarial activity against chloroquine-sensitive Plasmodium falciparum D6 infected in African green monkey (Cercopithecus aethiops) Vero cells assessed as parasite LDH activity after 72 hrs by Malstat reagent method

Leishmania donovani [3] = test: Antileishmanial activity against Leishmania donovani promastigotes after 72 hrs by alamar blue assay; assay type: functional, organism-based
Vero = test: Cytotoxicity against african green monkey Vero cells after 1 to 2 days by neutral red assay; assay type: ADME, cell-based, Chlorocebus sabaeus
[4] = Selectivity index, ratio of IC50 for african green monkey (Cercopithecus aethiops) Vero cells to IC50 for chloroquine-sensitive Plasmodium falciparum D6
[5] = Selectivity index, ratio of IC50 for african green monkey (Cercopithecus aethiops) Vero cells to IC50 for chloroquine-resistant Plasmodium falciparum W2
Leishmania donovani [6] = tested on: Leishmania donovani
Leishmania donovani [7] = test: Ratio of suberoylanilide hydroxamic acid IC50 to compound IC50 for Leishmania donovani promastigotes; assay type: functional
Leishmania donovani [8] = test: Ratio of suberoylanilide hydroxamic acid IC50 to compound IC50 for Leishmania donovani promastigotes
Histone deacetylase = test: Inhibition of HDAC in human HeLa cell nuclear extracts after 15 mins by fluorescence assay; assay type: cell-based
[9] = Leishmania donovani, 72 h, read-out: IC50
[10] = Chlorocebus sabaeus, Vero, read-out: IC50

`C[C@@H]1CC[C@H]2[C@@H](C)C(=O)O[C@@H]3O[C@@]4(C)CC[C@@H]1[C@]32OO4` [ARTEMISININ] showed an IC50 (Plasmodium falciparum [1]) of 0.006 µg/mL (≈ 0.0213 µM) and an IC50 (Plasmodium falciparum [2]) of 0.004 µg/mL (≈ 0.0142 µM).

In the case of `O=C(CCCn1cc(-c2ccccc2)nn1)NO`, the IC50 (Leishmania donovani [3]) is reported as “Not Active”, the IC50 (Plasmodium falciparum [1]) is reported as 3.5 µg/mL (≈ 14.2 µM) and the IC50 (Vero; vero) is reported as “Non-toxic”. The selectivity ratio [4] was > 1.7, the selectivity ratio [5] was > 1.4 and the IC90 (Leishmania donovani [6]) was “inactive”. The IC50 (Plasmodium falciparum [2]) was 2.85 µg/mL (≈ 11.6 µM).

`CN(C)c1ccc(-c2cn(CCCCCCC(=O)NO)nn2)cc1` gave an IC90 (Leishmania donovani [3]; Leishmania donovani, 72 h) of 36 µg/mL (≈ 109 µM), an IC50 (Leishmania donovani [3]; [9]) of 5.35 µg/mL (≈ 16.1 µM) and an IC50 (Plasmodium falciparum [1]) of 0.032 µg/mL (≈ 0.0966 µM). The IC50 (Vero; [10]) was 0.765 µg/mL (≈ 2.31 µM), the selectivity ratio [4] was 31.2 and the selectivity ratio [5] was 23.9. It also gave a Ratio (Leishmania donovani [7]) of 2, an IC50 (Plasmodium falciparum [2]) of 0.0245 µg/mL (≈ 0.0739 µM) and an IC50 ratio (Leishmania donovani [8]) of 2.

With `O=C(CCCCCCCn1cc(-c2ccccc2)nn1)NO` the IC50 (Histone deacetylase) was 363.6 nM, the IC90 (Leishmania donovani [3]; Leishmania donovani, 72 h) was > 40 µg/mL and the IC50 (Leishmania donovani [3]; [9]) was 17.8 µg/mL (≈ 58.7 µM). The IC50 (Plasmodium falciparum [1]) was 0.695 µg/mL (≈ 2.3 µM), the IC50 (Vero; vero) was “Non-toxic” and the selectivity ratio [4] was > 7.4. For the same compound, the selectivity ratio [5] was > 6.8 and the IC50 (Plasmodium falciparum [2]) was 0.645 µg/mL (≈ 2.13 µM).

With `O=C(CCCCCCCCn1cc(-c2cccc(-c3ccccc3)c2)nn1)NO` the IC50 (Histone deacetylase) was 147.7 nM, the IC90 (Leishmania donovani [3]; Leishmania donovani, 72 h) was 40 µg/mL (≈ 102 µM) and the IC50 (Leishmania donovani [3]; [9]) was 20 µg/mL (≈ 51 µM). For the same compound, the IC50 (Plasmodium falciparum [1]) was 3.2 µg/mL (≈ 8.15 µM), the IC50 (Vero; vero) was “Non-toxic” and the selectivity ratio [4] was > 1.4. For the same compound, the selectivity ratio [5] was > 1.5 and the IC50 (Plasmodium falciparum [2]) was 3.35 µg/mL (≈ 8.53 µM).

For `O=C(CCCCCCCn1cc(-c2cccnc2)nn1)NO`, the IC50 (Histone deacetylase) was 425.8 nM, the IC90 (Leishmania donovani [3]; Leishmania donovani, 72 h) was > 40 µg/mL and the IC50 (Leishmania donovani [3]; [9]) was 19.8 µg/mL (≈ 65.1 µM). The IC50 (Plasmodium falciparum [1]) was 1.69 µg/mL (≈ 5.56 µM), the IC50 (Vero; vero) was “Non-toxic” and the selectivity ratio [4] was > 3.2. For the same compound, the selectivity ratio [5] was > 2.8 and the IC50 (Plasmodium falciparum [2]) was 1.49 µg/mL (≈ 4.93 µM).

For `CN(C)c1ccc(-c2cn(CCCCCCCC(=O)NO)nn2)cc1`, the IC50 (Histone deacetylase) was 15.9 nM, the IC90 (Leishmania donovani [3]; Leishmania donovani, 72 h) was > 40 µg/mL and the IC50 (Leishmania donovani [3]; [9]) was 24 µg/mL (≈ 69.5 µM). For the same compound, the IC50 (Plasmodium falciparum [1]) was 0.185 µg/mL (≈ 0.536 µM), the IC50 (Vero; [10]) was 0.97 µg/mL (≈ 2.81 µM) and the selectivity ratio [4] was 3.8. It also gave a selectivity ratio [5] of 3.6 and an IC50 (Plasmodium falciparum [2]) of 0.175 µg/mL (≈ 0.507 µM).

Work on `O=C(CCCCCCCn1cc(-c2cccc(-c3ccccc3)c2)nn1)NO` yielded an IC50 (Histone deacetylase) of 108.9 nM, an IC90 (Leishmania donovani [3]; Leishmania donovani, 72 h) of 40 µg/mL (≈ 106 µM) and an IC50 (Leishmania donovani [3]; [9]) of 20.2 µg/mL (≈ 53.5 µM). The IC50 (Plasmodium falciparum [1]) was 0.65 µg/mL (≈ 1.72 µM), the IC50 (Vero; vero) was “Non-toxic” and the selectivity ratio [4] was > 5.6. The selectivity ratio [5] was > 7.3 and the IC50 (Plasmodium falciparum [2]) was 0.84 µg/mL (≈ 2.22 µM).

With `O=C(CCCCCCn1cc(-c2ccc(-c3ccncc3)cc2)nn1)NO` the IC50 (Leishmania donovani [3]) was “Not Active”, the IC50 (Plasmodium falciparum [1]) was 1.25 µg/mL (≈ 3.42 µM) and the IC50 (Vero; vero) was “Non-toxic”. For the same compound, the selectivity ratio [4] was > 4.1, the selectivity ratio [5] was > 3.8 and the IC90 (Leishmania donovani [6]) was “inactive”. For the same compound, the IC50 (Plasmodium falciparum [2]) was 1.15 µg/mL (≈ 3.15 µM).

For `COc1ccc(-c2cn(CCCCCC(=O)NO)nn2)cc1`, the IC90 (Leishmania donovani [3]; Leishmania donovani, 72 h) was > 40 µg/mL, the IC50 (Leishmania donovani [3]; [9]) was 18.5 µg/mL (≈ 60.8 µM) and the IC50 (Plasmodium falciparum [1]) was 0.09 µg/mL (≈ 0.296 µM). The IC50 (Vero; [10]) was 2.35 µg/mL (≈ 7.72 µM), the selectivity ratio [4] was 18.1 and the selectivity ratio [5] was 26.1. The IC50 (Plasmodium falciparum [2]) was 0.13 µg/mL (≈ 0.427 µM).

`Cc1ccccc1-c1cn(CCCCCCC(=O)NO)nn1` showed an IC50 (Histone deacetylase) of 2.8 nM, an IC90 (Leishmania donovani [3]; Leishmania donovani, 72 h) of 40 µg/mL (≈ 132 µM) and an IC50 (Leishmania donovani [3]; [9]) of 26 µg/mL (≈ 86 µM). It also gave an IC50 (Plasmodium falciparum [1]) of 0.14 µg/mL (≈ 0.463 µM), an IC50 (Vero; [10]) of 0.71 µg/mL (≈ 2.35 µM) and a selectivity ratio [4] of 5.9. The selectivity ratio [5] was 5.1 and the IC50 (Plasmodium falciparum [2]) was 0.12 µg/mL (≈ 0.397 µM).

For `O=C(CCCCCn1cc(-c2ccccc2)nn1)NO`, the IC90 (Leishmania donovani [3]; Leishmania donovani, 72 h) was > 40 µg/mL, the IC50 (Leishmania donovani [3]; [9]) was 17.5 µg/mL (≈ 63.8 µM) and the IC50 (Plasmodium falciparum [1]) was 0.13 µg/mL (≈ 0.474 µM). It also gave an IC50 (Vero; [10]) of 3.95 µg/mL (≈ 14.4 µM), a selectivity ratio [4] of 44.9 and a selectivity ratio [5] of 30.4. For the same compound, the IC50 (Plasmodium falciparum [2]) was 0.088 µg/mL (≈ 0.321 µM).

With `O=C(CCCCn1cc(-c2ccccc2)nn1)NO` the IC50 (Leishmania donovani [3]) was “Not Active”, the IC50 (Plasmodium falciparum [1]) was 0.12 µg/mL (≈ 0.461 µM) and the IC50 (Vero; vero) was “Non-toxic”. For the same compound, the selectivity ratio [4] was > 38.1, the selectivity ratio [5] was > 39.6 and the IC90 (Leishmania donovani [6]) was “inactive”. It also gave an IC50 (Plasmodium falciparum [2]) of 0.125 µg/mL (≈ 0.48 µM).

With `Cc1ccc(-c2cn(CCCCCC(=O)NO)nn2)cc1` the IC90 (Leishmania donovani [3]; Leishmania donovani, 72 h) was > 40 µg/mL, the IC50 (Leishmania donovani [3]; [9]) was 21.5 µg/mL (≈ 74.6 µM) and the IC50 (Plasmodium falciparum [1]) was 0.14 µg/mL (≈ 0.486 µM). For the same compound, the IC50 (Vero; [10]) was 3.85 µg/mL (≈ 13.4 µM), the selectivity ratio [4] was 29.6 and the selectivity ratio [5] was 27.5. It also gave an IC50 (Plasmodium falciparum [2]) of 0.13 µg/mL (≈ 0.451 µM).

In the case of `COc1ccc2cc(-c3cn(CCCCCCCC(=O)NO)nn3)ccc2c1`, the IC50 (Histone deacetylase) is reported as 226.1 nM, the IC50 (Leishmania donovani [3]) is reported as “Not Active” and the IC50 (Plasmodium falciparum [1]) is reported as 0.165 µg/mL (≈ 0.431 µM). For the same compound, the IC50 (Vero; [10]) was 0.65 µg/mL (≈ 1.7 µM), the selectivity ratio [4] was 5.8 and the selectivity ratio [5] was 3.9. The IC90 (Leishmania donovani [6]) was “inactive” and the IC50 (Plasmodium falciparum [2]) was 0.112 µg/mL (≈ 0.293 µM).

In the case of `COc1cccc(OC)c1-c1cn(CCCCCC(=O)NO)nn1`, the IC90 (Leishmania donovani [3]; Leishmania donovani, 72 h) is reported as > 40 µg/mL, the IC50 (Leishmania donovani [3]; [9]) is reported as 40 µg/mL (≈ 120 µM) and the IC50 (Plasmodium falciparum [1]) is reported as 2.6 µg/mL (≈ 7.78 µM). The IC50 (Vero; vero) was “Non-toxic”, the selectivity ratio [4] was > 2.4 and the selectivity ratio [5] was > 1.8. For the same compound, the IC50 (Plasmodium falciparum [2]) was 2 µg/mL (≈ 5.98 µM).

With `O=C(CCCCCCCn1cc(-c2ccc(-c3ccncc3)cc2)nn1)NO` the IC50 (Histone deacetylase) was 212.9 nM, the IC50 (Leishmania donovani [3]) was “Not Active” and the IC50 (Plasmodium falciparum [1]) was 0.128 µg/mL (≈ 0.336 µM). It also gave an IC50 (Vero; [10]) of 3.85 µg/mL (≈ 10.1 µM), a selectivity ratio [4] of 43.5 and a selectivity ratio [5] of 30.2. The IC90 (Leishmania donovani [6]) was “inactive” and the IC50 (Plasmodium falciparum [2]) was 0.0885 µg/mL (≈ 0.233 µM).

With `COc1ccccc1-c1cn(CCCCCC(=O)NO)nn1` the IC90 (Leishmania donovani [3]; Leishmania donovani, 72 h) was > 40 µg/mL, the IC50 (Leishmania donovani [3]; [9]) was 18.8 µg/mL (≈ 61.6 µM) and the IC50 (Plasmodium falciparum [1]) was 0.0975 µg/mL (≈ 0.32 µM). It also gave an IC50 (Vero; [10]) of 2.3 µg/mL (≈ 7.56 µM), a selectivity ratio [4] of 15.3 and a selectivity ratio [5] of 23.6. The IC50 (Plasmodium falciparum [2]) was 0.15 µg/mL (≈ 0.493 µM).

`C[C@@H]1[C@H](O)[C@@H](C)/C=C/C=C/C=C/C=C/C=C/C=C/C=C/[C@H](O[C@@H]2O[C@H](C)[C@@H](O)[C@H](N)[C@@H]2O)C[C@@H]2O[C@](O)(C[C@@H](O)C[C@@H](O)[C@H](O)CC[C@@H](O)C[C@@H](O)CC(=O)O[C@H]1C)C[C@H](O)[C@H]2C(=O)O` [AMPHOTERICIN B] gave an IC90 (Leishmania donovani [3]; Leishmania donovani, 72 h) of 0.31 µg/mL (≈ 0.335 µM) and an IC50 (Leishmania donovani [3]; [9]) of 0.14 µg/mL (≈ 0.152 µM).
